Measured values from PubChem BioAssay (NCI).
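Results reflect a 48-hour exposure of cells in 96-well plates to compound at five concentrations. Abbreviation: GI50, concentration required for 50% inhibition of growth. The concentration for full growth arrest is given as TGI.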

How the values were obtained:
Assay in all cases: inhibition of tumour cell growth, NCI panel, 48 h
[1] = system: MDA-MB-468 breast
[2] = system: K-562 leukemia
[3] = system: T-47D breast
[4] = system: MOLT-4 leukemia
[5] = system: UACC-62 melanoma
[6] = system: 786-0 renal
[7] = system: SF-268 CNS
[8] = system: HS 578T breast
[9] = system: HCC-2998 colon
[10] = system: UACC-257 melanoma
[11] = system: TK-10 renal
[12] = system: BT-549 breast
[13] = system: CCRF-CEM leukemia
[14] = system: PC-3 prostate
[15] = system: ACHN renal
[16] = system: COLO 205 colon
[17] = system: NCI/ADR-RES ovarian
[18] = system: HOP-62 NSCLC
[19] = system: HOP-92 NSCLC
[20] = system: HCT-15 colon
[21] = system: M14 melanoma
[22] = system: CAKI-1 renal
[23] = system: SK-OV-3 ovarian
[24] = system: A498 renal
[25] = system: OVCAR-8 ovarian
[26] = system: A549 NSCLC
[27] = system: SNB-19 CNS
[28] = system: NCI-H23 lung
[29] = system: IGROV1 ovarian
[30] = system: SW-620 colon
[31] = system: SK-MEL-28 melanoma
[32] = system: DU-145 prostate
[33] = system: NCI-H460 lung
[34] = system: RPMI-8226 leukemia
[35] = system: NCI-H522 lung
[36] = system: SR leukemia
[37] = system: EKVX NSCLC
[38] = system: NCI-H226 lung
[39] = system: HCT-116 colon
[40] = system: MDA-MB-435
[41] = system: OVCAR-3 ovarian
[42] = system: HL-60(TB) leukemia
[43] = system: MALME-3M melanoma
[44] = system: U251 CNS
[45] = system: SK-MEL-5 melanoma
[46] = system: HT29 colon
[47] = system: MCF7 breast
[48] = system: LOX IMVI melanoma
[49] = system: SF-539 CNS
[50] = system: SN12C renal
[51] = system: KM12 colon
[52] = system: RXF 393 renal
[53] = system: SF-295 CNS
[54] = system: OVCAR-5 ovarian
[55] = system: OVCAR-4 ovarian

In the case of `CC1=NN(c2cccc(Cl)c2)C(=O)/C1=C\C=C\c1ccccc1`, the GI50 [1] is reported as 1.66 µM and the TGI [1] is reported as 6.14 µM.
`CC(C)(O)CCc1cccc(C(=O)c2cnn(-c3ccc(F)cc3)c2N)c1` showed a GI50 [1] of 13.2 µM and a TGI [1] greater than 25 µM.
Compound `O=C1NC(=S)/C(=C/c2cn(-c3ccccc3)nc2-c2ccccc2)S1` has a GI50 [2] of 5.38 µM, a TGI [2] greater than 100 µM and a GI50 [3] of 4.41 µM. For the same compound, the TGI [3] was greater than 100 µM, the GI50 [4] was 3.91 µM and the TGI [4] was 34.4 µM. It also gave a GI50 [5] of 3.49 µM, a TGI [5] of 15.3 µM and a GI50 [6] of 4.79 µM. For the same compound, the TGI [6] was greater than 100 µM, the GI50 [7] was 6.07 µM and the TGI [7] was greater than 100 µM. For the same compound, the GI50 [8] was 5.73 µM, the TGI [8] was 91.6 µM and the GI50 [9] was 10.6 µM. The TGI [9] was 44.6 µM, the GI50 [10] was 6.36 µM and the TGI [10] was greater than 100 µM. For the same compound, the GI50 [11] was 12.5 µM, the TGI [11] was greater than 100 µM and the GI50 [12] was 2.65 µM. The TGI [12] was 11.3 µM, the GI50 [13] was 4.35 µM and the TGI [13] was greater than 100 µM. For the same compound, the GI50 [14] was 5.76 µM, the TGI [14] was greater than 100 µM and the GI50 [15] was 8.33 µM. It also gave a TGI [15] greater than 100 µM, a GI50 [16] of 11.9 µM and a TGI [16] of 32 µM. The GI50 [17] was 7.3 µM, the TGI [17] was greater than 100 µM and the GI50 [18] was 22.8 µM. For the same compound, the TGI [18] was greater than 100 µM, the GI50 [19] was 2.3 µM and the TGI [19] was 9.73 µM. The GI50 [20] was 4.29 µM, the TGI [20] was 33.8 µM and the GI50 [21] was 4.82 µM. It also gave a TGI [21] greater than 100 µM, a GI50 [22] of 9.4 µM and a TGI [22] greater than 100 µM. For the same compound, the GI50 [23] was 6.82 µM, the TGI [23] was 81.2 µM and the GI50 [24] was 5.6 µM. It also gave a TGI [24] of 41.3 µM, a GI50 [25] of 16.1 µM and a TGI [25] of 80.8 µM. The GI50 [26] was 6.74 µM, the TGI [26] was greater than 100 µM and the GI50 [27] was 4.91 µM. For the same compound, the TGI [27] was greater than 100 µM, the GI50 [28] was 4.86 µM and the TGI [28] was 51.6 µM. For the same compound, the GI50 [1] was 3.13 µM, the TGI [1] was 21.8 µM and the GI50 [29] was 6.46 µM. It also gave a TGI [29] of 45.2 µM, a GI50 [30] of 9.67 µM and a TGI [30] greater than 100 µM. For the same compound, the GI50 [31] was 5.31 µM, the TGI [31] was greater than 100 µM and the GI50 [32] was 9.48 µM. It also gave a TGI [32] greater than 100 µM, a GI50 [33] of 4.89 µM and a TGI [33] of 26.2 µM. For the same compound, the GI50 [34] was 3.57 µM, the TGI [34] was 94.7 µM and the GI50 [35] was 4.39 µM. It also gave a TGI [35] of 19.3 µM, a GI50 [36] of 6.65 µM and a TGI [36] of 32.3 µM. The GI50 [37] was 4.1 µM, the TGI [37] was greater than 100 µM and the GI50 [38] was 13.4 µM. It also gave a TGI [38] greater than 100 µM, a GI50 [39] of 5.57 µM and a TGI [39] greater than 100 µM. For the same compound, the GI50 [40] was 5.49 µM, the TGI [40] was greater than 100 µM and the GI50 [41] was 7.1 µM. The TGI [41] was 27.1 µM, the GI50 [42] was 3.94 µM and the TGI [42] was 36.6 µM. The GI50 [43] was 4.85 µM, the TGI [43] was 35.8 µM and the GI50 [44] was 7.49 µM. The TGI [44] was greater than 100 µM, the GI50 [45] was 2.59 µM and the TGI [45] was 7.45 µM. For the same compound, the GI50 [46] was 9.99 µM, the TGI [46] was 37.1 µM and the GI50 [47] was 4.03 µM. For the same compound, the TGI [47] was greater than 100 µM, the GI50 [48] was 13.4 µM and the TGI [48] was greater than 100 µM. It also gave a GI50 [49] of 6.5 µM, a TGI [49] of 21.8 µM and a GI50 [50] of 4.73 µM. For the same compound, the TGI [50] was greater than 100 µM, the GI50 [51] was 5.8 µM and the TGI [51] was 40.2 µM. The GI50 [52] was 17.1 µM, the TGI [52] was 71.6 µM and the GI50 [53] was 8.61 µM. For the same compound, the TGI [53] was 32.7 µM, the GI50 [54] was 22 µM and the TGI [54] was greater than 100 µM. The GI50 [55] was 5.24 µM and the TGI [55] was greater than 100 µM.
